Test results as given in ChEMBL document CHEMBL1201862, “PubChem BioAssay data set” (2004).
Active and inactive are the calls of the source.

Experiments:
HeLa = experiment: Cytotoxicity counterscreen assay for transcriptional activators of heat shock protein 70 (Hsp70). [Related pubchem assays: 1203, 1252 ]; format: functional; conditions: Homo sapiens;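 further: cells exposed to compound for 16 hours before readout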
[1] = reduction of Shn3 3'UTR-driven luciferase in osteoblasts – cell-based, Clone20 osteoblasts, firefly luciferase, cherry-picked, dose response (AID 624132); format: functional;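 further: firefly luciferase luminescence from reporter carrying the Shn3 3'UTR in osteoblasts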
[2] = molecular target: T1, Microphthalmia-associated transcription factor (Homo sapiens, UniProt O75030); experiment: reducers of TRPM1 reporter luminescence, concentration series – cell-based, SK-MEL-5, cherry-picked, set 3, MITF inhibitor project, dose response (AID 493073); format: functional;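 further: SK-MEL-5 melanoma cells with luciferase driven by the MITF target TRPM1 promoter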
T1 sequence (O75030 whole entry): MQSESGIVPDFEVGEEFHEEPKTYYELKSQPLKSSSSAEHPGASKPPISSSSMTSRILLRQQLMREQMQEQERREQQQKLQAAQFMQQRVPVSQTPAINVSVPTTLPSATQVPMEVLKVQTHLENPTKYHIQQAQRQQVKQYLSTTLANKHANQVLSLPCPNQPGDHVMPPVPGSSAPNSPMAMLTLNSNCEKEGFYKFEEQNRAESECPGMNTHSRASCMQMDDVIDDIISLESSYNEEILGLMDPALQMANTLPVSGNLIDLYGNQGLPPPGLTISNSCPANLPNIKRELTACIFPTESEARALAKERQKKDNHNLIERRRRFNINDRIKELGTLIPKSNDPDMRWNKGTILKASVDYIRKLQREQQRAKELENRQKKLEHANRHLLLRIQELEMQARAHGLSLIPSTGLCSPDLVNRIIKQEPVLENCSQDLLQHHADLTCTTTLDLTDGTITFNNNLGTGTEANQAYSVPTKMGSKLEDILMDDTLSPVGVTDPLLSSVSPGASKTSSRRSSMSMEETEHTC

[3] = loss of viability in HepG2 cells – cell-based, CellTiter-Glo, cherry-picked, cytotoxicity control for Shn3 inhibitor project, dose response (AID 624134); format: functional
Paired box protein Pax-8 = Paired box protein Pax-8 (Homo sapiens, UniProt Q06710); experiment: PAX8 transcriptional activity inhibition in RMG-I – RMG-I cells, luciferase, cherry-pick, dose response (AID 687027); format: functional, cell-based;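 further: luciferase reporter driven by Pax8 target thyroperoxidase promoter measured by SteadyGlo luminescence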
Sequence of Paired box protein Pax-8 (Q06710 whole entry): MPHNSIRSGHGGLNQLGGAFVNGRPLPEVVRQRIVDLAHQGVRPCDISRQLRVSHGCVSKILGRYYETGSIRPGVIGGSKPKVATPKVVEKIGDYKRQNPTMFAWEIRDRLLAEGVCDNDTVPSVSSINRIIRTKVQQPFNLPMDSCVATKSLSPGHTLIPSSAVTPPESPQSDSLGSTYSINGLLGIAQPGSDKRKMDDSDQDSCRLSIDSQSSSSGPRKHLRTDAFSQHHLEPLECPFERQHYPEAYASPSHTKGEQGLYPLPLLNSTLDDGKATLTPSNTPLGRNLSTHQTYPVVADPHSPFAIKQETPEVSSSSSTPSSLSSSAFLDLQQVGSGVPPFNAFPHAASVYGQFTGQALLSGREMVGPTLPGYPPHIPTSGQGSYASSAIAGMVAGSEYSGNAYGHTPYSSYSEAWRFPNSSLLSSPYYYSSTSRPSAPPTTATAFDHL

[4] = non-specific 3'UTR reporter inhibition in Clone20-Shn3RL – cell-based, Renilla luciferase, cherry-picked, counter-screen for Shn3 inhibitor project, dose response (AID 624133); format: functional
HEK293 [5] = experiment: cells; conditions: Homo sapiens
[6] = A High Throughput Confirmatory Assay used to Identify Novel Compounds that Inhibit Mycobacterium Tuberculosis in the absence of Glycerol.; format: functional
[7] = microbe, parasite or virus in culture; format: functional; conditions: Mycobacterium tuberculosis
HEK293 [8] = experiment: cells; conditions: Homo sapiens; remark: listed apart in the source
Bcl-2-like protein 10 = Bcl-2-like protein 10 (Homo sapiens, UniProt Q9HD36); experiment: Concentration-response of Bcl-B inhibitors by biochemical FP with TR3 (AID 1243); format: functional
Sequence of Bcl-2-like protein 10 (Q9HD36 whole entry): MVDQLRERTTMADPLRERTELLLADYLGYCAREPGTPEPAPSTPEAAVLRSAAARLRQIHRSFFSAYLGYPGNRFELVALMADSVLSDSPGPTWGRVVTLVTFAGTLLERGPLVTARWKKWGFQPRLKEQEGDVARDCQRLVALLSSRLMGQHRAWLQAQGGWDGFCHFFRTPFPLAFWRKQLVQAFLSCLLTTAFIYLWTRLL

[9] = Luminescence Cell-Based Dose Response to Identify Activators of Luciferase Translation or Activity in H4-C Neuroglioblastoma Cells. [Related pubchem assays: 1829 (Project Summary), 1814 (Primary HTS)]; format: functional
[10] = Luminescence Cell-Based Dose Response HTS to Identify Activators of Luciferase Translation or Activity in H4 […] Cells. [Related pubchem assays: 1829 (Project Summary), 1814 (Primary HTS)]; format: functional
[11] = Luminescence Cell-Based Dose Response to Identify Activators of 5'UTR Stem-Loop Driven Prion Protein mRNA Translation in H4-C Neuroglioblastoma Cells. [Related pubchem assays: 1829 (Project Summary), 1814 (Primary HTS)]; format: functional
[12] = Luminescence Cell-Based Dose Confirmation to Identify Activators of 5'UTR Stem-Loop Driven Alpha-Synuclein mRNA Translation in H4 Neuroglioblastoma Cells. [Related pubchem assays: 1829 (Project Summary), 1814 (Primary HTS)]; format: functional
Ion channel NompC = Ion channel NompC (Danio rerio, UniProt Q7T1G6); experiment: Fluorescence counterscreen assay for TRPML3 agonists: dose response cell-based high-throughput screening assay to identify agonists of the transient receptor potential channel N1 (TRPN1). [Related pubchem assays: 1526, 1424, 1448 ]; format: functional
Sequence of Ion channel NompC (Q7T1G6 whole entry): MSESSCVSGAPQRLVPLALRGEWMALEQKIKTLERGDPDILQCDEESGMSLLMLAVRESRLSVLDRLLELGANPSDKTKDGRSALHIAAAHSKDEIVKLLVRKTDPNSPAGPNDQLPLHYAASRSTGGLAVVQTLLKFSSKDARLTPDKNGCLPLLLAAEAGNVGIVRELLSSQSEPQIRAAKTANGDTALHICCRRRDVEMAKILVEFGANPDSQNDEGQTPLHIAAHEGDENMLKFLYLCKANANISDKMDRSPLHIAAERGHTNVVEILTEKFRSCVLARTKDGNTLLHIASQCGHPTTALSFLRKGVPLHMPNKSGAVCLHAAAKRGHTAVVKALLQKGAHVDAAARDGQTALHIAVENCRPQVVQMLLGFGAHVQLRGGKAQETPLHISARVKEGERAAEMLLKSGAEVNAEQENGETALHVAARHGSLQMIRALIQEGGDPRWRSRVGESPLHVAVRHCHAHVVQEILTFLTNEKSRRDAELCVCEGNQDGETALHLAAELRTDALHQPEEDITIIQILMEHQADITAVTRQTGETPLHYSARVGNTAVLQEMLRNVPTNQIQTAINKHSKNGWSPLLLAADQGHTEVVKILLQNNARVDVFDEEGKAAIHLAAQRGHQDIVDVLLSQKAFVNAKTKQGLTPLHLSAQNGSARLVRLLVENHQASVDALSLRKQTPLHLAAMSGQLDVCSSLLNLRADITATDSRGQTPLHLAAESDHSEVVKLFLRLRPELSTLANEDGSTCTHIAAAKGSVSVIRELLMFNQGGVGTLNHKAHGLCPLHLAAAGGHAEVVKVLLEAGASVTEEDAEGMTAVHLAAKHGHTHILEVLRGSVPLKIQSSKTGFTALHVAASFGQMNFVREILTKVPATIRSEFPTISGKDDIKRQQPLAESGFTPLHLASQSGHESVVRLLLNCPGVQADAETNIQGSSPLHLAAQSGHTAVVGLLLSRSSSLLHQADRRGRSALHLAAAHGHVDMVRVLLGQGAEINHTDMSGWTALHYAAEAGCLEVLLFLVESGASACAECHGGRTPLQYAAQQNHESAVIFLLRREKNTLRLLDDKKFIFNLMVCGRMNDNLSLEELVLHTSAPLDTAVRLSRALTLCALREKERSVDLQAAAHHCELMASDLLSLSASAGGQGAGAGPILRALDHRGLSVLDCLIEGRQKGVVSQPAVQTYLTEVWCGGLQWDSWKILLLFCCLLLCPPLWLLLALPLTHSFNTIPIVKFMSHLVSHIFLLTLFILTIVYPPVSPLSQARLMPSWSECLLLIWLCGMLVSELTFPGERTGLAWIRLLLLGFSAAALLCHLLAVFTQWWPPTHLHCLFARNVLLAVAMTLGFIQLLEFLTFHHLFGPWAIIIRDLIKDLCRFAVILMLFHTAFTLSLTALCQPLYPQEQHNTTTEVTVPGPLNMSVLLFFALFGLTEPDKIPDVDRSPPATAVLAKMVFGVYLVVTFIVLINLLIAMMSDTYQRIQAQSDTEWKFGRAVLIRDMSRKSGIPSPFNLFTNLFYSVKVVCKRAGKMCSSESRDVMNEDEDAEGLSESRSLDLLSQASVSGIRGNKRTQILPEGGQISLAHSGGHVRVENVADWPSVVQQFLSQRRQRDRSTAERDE

Mucolipin-3 = Mucolipin-3 (Homo sapiens, UniProt Q8TDD5); experiment: Dose response cell-based high-throughput screening assay for agonists of the transient receptor potential channel ML3 (TRPML3). [Related pubchem assays: 1526, 1424, 1448 ]; format: functional
Sequence of Mucolipin-3 (Q8TDD5 whole entry): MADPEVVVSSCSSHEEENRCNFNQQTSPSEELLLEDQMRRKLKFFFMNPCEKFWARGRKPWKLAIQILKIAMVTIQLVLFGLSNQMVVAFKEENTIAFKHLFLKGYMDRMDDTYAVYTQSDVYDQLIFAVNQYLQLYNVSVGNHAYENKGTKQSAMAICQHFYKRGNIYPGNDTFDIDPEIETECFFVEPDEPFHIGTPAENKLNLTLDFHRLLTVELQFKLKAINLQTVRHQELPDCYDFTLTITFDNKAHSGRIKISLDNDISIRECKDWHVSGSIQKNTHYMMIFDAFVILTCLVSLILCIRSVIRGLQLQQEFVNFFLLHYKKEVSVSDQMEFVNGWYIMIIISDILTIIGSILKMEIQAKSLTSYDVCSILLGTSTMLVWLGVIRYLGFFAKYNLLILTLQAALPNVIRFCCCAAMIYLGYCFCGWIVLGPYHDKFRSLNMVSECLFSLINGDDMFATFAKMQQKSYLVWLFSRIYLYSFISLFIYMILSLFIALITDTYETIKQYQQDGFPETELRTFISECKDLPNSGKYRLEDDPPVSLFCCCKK

BJ [13] = experiment: BJ-TERT fibroblast viability loss – cell-based, RAS-independent, luminescence, dose response (AID 1933); format: functional; conditions: Homo sapiens
[14] = DRD fibroblast viability loss – cell-based, non-viral oncogenic, luminescence, dose response (AID 1934); format: functional; conditions: Homo sapiens
[15] = Luminescence-based dose response cell-based high throughput screening assay for cytotoxic compounds using the IEC-6 intestinal epithelial cell line. [Related pubchem assays: 1858 (Summary AID.), 1825 (Counterscreen.), 1907 (Confirmation screen.)]; format: functional
Vero = experiment: cells; format: functional; conditions: Chlorocebus sabaeus
BJ [16] = experiment: BJ-TERT-LT-ST fibroblast viability loss – cell-based, RAS-independent, luminescence, dose response (AID 1935); format: functional; conditions: Homo sapiens;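 further: BJ fibroblasts immortalized with TERT plus LT and ST oncogenes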
BJ [17] = experiment: growth inhibition of engineered Ras-driven BJ cells – cell-based, alamar blue fluorescence, cherrypicked samples, dose response (AID 2631); format: functional; conditions: Homo sapiens;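 further: confirmatory dose-response assay in RAS-dependent BJ fibroblasts engineered with TERT, LT and ST, with cytotoxicity read by fluorescence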
BJ [18] = experiment: cells; format: functional, cell-based; conditions: Homo sapiens
[19] = molecular target: Mothers against decapentaplegic homolog 3 (Homo sapiens, UniProt P84022); experiment: inhibitors of SMAD-driven TGF-beta signaling – dose response (AID 715); format: functional
Sequence of Mothers against decapentaplegic homolog 3 (P84022 whole entry): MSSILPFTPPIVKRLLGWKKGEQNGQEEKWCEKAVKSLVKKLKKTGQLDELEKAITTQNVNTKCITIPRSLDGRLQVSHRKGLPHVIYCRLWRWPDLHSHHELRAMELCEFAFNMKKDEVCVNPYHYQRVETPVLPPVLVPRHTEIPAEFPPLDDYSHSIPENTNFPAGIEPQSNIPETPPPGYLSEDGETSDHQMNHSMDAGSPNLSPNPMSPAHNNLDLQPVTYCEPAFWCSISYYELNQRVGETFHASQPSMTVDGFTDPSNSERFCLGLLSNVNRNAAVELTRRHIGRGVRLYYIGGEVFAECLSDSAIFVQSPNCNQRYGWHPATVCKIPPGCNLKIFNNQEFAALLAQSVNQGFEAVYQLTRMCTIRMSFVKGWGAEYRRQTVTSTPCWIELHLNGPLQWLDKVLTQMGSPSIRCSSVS

[20] = molecular target: Protein-tyrosine kinase 2-beta (Homo sapiens, UniProt Q14289);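 further: potency of inhibitors of PYK2 kinase phosphorylation of poly-GT substrate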
Sequence of Protein-tyrosine kinase 2-beta (Q14289 whole entry): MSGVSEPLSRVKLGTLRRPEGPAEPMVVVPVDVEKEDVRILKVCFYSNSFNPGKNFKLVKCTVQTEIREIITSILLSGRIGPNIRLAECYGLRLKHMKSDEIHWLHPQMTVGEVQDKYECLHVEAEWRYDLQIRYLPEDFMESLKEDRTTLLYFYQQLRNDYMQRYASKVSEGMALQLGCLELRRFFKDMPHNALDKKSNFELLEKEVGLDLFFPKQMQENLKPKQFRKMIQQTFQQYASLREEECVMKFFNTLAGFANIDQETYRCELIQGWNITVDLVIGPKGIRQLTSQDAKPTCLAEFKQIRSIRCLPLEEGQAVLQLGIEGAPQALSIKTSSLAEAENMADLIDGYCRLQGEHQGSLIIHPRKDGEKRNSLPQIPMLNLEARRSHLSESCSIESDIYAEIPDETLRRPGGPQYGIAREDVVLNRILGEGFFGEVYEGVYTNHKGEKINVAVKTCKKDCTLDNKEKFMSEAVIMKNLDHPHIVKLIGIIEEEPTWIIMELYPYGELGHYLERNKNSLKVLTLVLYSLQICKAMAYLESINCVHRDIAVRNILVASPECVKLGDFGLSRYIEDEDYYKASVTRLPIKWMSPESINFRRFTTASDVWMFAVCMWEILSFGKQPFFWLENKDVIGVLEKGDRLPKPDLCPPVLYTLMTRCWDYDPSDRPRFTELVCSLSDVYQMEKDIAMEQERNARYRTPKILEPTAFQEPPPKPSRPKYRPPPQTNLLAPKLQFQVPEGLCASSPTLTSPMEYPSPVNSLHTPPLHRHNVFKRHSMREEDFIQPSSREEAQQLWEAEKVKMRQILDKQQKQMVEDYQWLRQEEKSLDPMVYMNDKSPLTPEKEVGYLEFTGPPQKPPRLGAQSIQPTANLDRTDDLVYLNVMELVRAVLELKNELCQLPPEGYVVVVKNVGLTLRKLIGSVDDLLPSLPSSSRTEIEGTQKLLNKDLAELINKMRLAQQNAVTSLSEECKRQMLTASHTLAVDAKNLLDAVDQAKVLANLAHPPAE

[21] = molecular target: Eukaryotic translation initiation factor 4E (Mus musculus, UniProt P63073); experiment: blockers of eIF4G binding by eIF4E – biochemical, TR-FRET, dose response (AID 855); format: functional;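 further: potency for disrupting eIF4E binding to eIF4GI seen as loss of FRET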
Sequence of Eukaryotic translation initiation factor 4E (P63073 whole entry): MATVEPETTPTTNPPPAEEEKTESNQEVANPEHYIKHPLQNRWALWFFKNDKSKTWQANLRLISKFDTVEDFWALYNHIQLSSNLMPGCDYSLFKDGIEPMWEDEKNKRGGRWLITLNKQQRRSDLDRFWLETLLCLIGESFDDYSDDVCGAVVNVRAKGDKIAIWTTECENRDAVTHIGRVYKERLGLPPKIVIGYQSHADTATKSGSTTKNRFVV

SMILES: CC(C)C(=O)N1CCN(c2ccc(NC(=O)c3ccc([N+](=O)[O-])o3)cc2Cl)CC1
- CC50 (HeLa): 3.45 µM (active)
- AC50 [1]: 954 nM (active)
- AC50 [2]: 7.05 µM (active)
- AC50 [3]: 27.8 µM (active)
- AC50 (Paired box protein Pax-8): 3.25 µM (active)
- AC50 [4]: 8.27 µM (active)

SMILES: CCCCC(=O)/C=C/n1c(=S)oc2ccccc21
- EC50 (HEK293 [5]): > 2.21 µM (active)
- IC50 [6]: > 100 µM (active)
- CC50 [7]: 19.8 µM (active)
- EC50 (HEK293 [8]): > 59.6 µM (inactive)

SMILES: O=C(O)c1ccc([N+](=O)[O-])c2c1NC(c1ccccc1)C1CC=CC21 (configuration not stated)
- EC50 (Bcl-2-like protein 10): 3.92 µM (active)

SMILES: C=CCSc1nnc2c3cccc(C)c3nc-2[nH]1
- EC50 [9]: 310 nM (active)
- EC50 [10]: < 100 nM (active)
- EC50 [11]: 317 nM (active)
- EC50 [12]: 311 nM (active)

SMILES: O=S(=O)(Nc1ccccc1N1CCCCC1)c1cccs1
- EC50 (Ion channel NompC): > 29.9 µM (not active)
- EC50 (Mucolipin-3): 2.3 µM (active)

SMILES: Cc1ccc(/C=N/NC(=O)c2[nH]nc3c2CCCC3)cc1
- EC50 (BJ [13]): 310 nM (inconclusive)
- EC50 [14]: 711 nM (inconclusive)
- IC50 [15]: 320 nM (active)
- CC50 (Vero): 240 nM (active)
- EC50 (BJ [16]): 370 nM (inconclusive)
- EC50 (BJ [17]): < 104 nM (active)
- EC50 (BJ [18]): 382 nM (active)

SMILES: O=[N+]([O-])c1cc(/C=N\Nc2nccs2)ccc1O
- IC50 [19]: 30.9 µM (not active)
- IC50 [20]: 3.15 µM (active)
- IC50 [21]: 10.8 µM (active)
